Data as given in US10732169B2, “Personalized healthcare P4 drug monitoring system and method” (eNano Health Limited, priority 2016, dated 2020).

What was measured:
[1] = LC/MS, all subjects, FIG. 15
Protocol: In a third illustrative example, the detection of a HIV drug in saliva is conducted according to the claimed invention. […] Sample analysis hardware includes chromatography and mass spectrometry functionality and can additionally include genetic sequencing functionality.

[2] = Keppra levels in dried spot saliva samples over time after taking the drug, LC/MS; assay type: in vivo; details: two separate days, FIG. 14
Protocol: FIGS. 9 to 14 further illustrate the detection of Keppra in saliva. Levetiracetam (Trade Name: Keppra), is a medication used to treat epilepsy. In the illustrative example, the saliva specimens are collected on 2 separate days. On each day, subject is asked to collect blood/saliva samples before taking Keppra (time=0 hour), and after taking the drug (time=1, 2, 4, 8 hours). Saliva samples are collected in both liquid and dried spot forms. Blood samples are collected in dried spot form and are stored at room temperature before transportation for analytical laboratory analysis using LC/MS.
FIG. 13 is a graphical representation of Keppra levels using dried saliva comparatively measured. Graphical representation 1301 illustrates the comparison of dried saliva spot samples over two separate days.
FIG. 14 is a graphical representation of Keppra levels using dried saliva comparatively measured. The half-life of Keppra is known to be 5-8 hours. […] Consequently, dried spot saliva samples reliably reflect clearance of Keppra from the body according to the claimed invention.

[3] = known value; cited from earlier work

SMILES	detection of drug fragment ion in saliva [1]	time after which Keppra level depleted by half [2]	half-life [3]
Nc1nc(=O)n([C@@H]2CS[C@H](CO)O2)cc1F [FTC]	detection of the FTC fragment ion		
CC[C@@H](C(N)=O)N1CCCC1=O [Keppra, Levetiracetam]		8 h	5 to 8 h
